This assay concerns the target T1, MAP3K10 (MLK2) (Homo sapiens, UniProt Q02779).
T1 construct: purchased Thermo Fisher Scientific (Life Technologies) SelectScreen
The assay can be described thus: SelectScreen LanthaScreen. The conditions noted are these: read-out: % displacement. In kind it is binding. The gist of the method: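 SelectScreen broad panel; activity (Z'LYTE, Adapta) plus binding formats. ATP: Km app for CSF1R Z'LYTE; 10 for CAMK1 Adapta. Readout = % per kinase.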

The structures appear in SMILES notation.

T1 sequence (Q02779 whole entry): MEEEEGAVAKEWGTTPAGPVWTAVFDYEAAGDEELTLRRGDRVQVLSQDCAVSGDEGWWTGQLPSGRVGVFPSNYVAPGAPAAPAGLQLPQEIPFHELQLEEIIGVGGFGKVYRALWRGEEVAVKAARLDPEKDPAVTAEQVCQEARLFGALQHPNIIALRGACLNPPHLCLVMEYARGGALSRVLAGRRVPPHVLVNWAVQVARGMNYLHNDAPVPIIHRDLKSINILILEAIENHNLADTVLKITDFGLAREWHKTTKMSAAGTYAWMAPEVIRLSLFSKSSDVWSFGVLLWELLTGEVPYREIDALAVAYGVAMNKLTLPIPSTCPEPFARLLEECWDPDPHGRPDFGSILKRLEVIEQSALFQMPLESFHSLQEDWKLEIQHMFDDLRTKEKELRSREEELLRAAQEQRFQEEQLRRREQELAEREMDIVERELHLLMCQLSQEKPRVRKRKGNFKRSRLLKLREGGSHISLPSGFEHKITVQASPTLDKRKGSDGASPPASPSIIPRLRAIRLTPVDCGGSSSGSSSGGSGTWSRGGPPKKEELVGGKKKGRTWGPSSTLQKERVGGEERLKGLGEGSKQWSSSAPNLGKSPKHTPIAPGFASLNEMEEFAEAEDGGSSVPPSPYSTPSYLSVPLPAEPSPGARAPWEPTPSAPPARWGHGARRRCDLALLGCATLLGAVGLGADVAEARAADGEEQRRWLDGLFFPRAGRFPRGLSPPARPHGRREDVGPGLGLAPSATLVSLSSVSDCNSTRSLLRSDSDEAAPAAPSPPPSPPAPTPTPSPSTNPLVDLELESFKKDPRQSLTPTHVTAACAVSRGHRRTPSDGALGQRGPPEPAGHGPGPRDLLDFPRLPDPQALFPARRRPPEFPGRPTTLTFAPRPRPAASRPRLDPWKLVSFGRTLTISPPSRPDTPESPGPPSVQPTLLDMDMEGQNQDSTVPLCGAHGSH

Take `CN(C(=O)CN1CCOCC1)c1ccc2sc3c(-c4cccc5c(=O)cc(N6CC7CCC(C6)O7)oc45)cccc3c2c1` [NU5455]: the inhibition at 1 µM is 1.5%.

Values taken from paper PMC6934184, “Selective DNA-PKcs inhibition extends the therapeutic index of localized radiotherapy and chemotherapy” (The Journal of Clinical Investigation, 2019).
